Consider ten compounds from patent US12594276B2, “Inhibitors of human immunodeficiency virus replication” (ViiV Healthcare UK (No.5) Limited, priority 2024, dated 2026).

Molecules are shown by their SMILES.

Series [1] concerns recombinant NL4-3 virus (nef section replaced with Renilla luciferase gene) in MT-2 cells. Description: HIV cell culture assay (antiviral activity, luciferase readout). It counts as cell-based. The conditions noted are these: Renilla, NL43, MT-2 cells infected for 4-5 days with recombinant NL4-3 Renilla luciferase virus. In short, it runs like this:
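293T transfection → virus harvest at 2-3 d → titer in MT-2 by luciferase. MT-2 + virus + serial cpd dilutions, 4-5 d. Live-cell luciferase read; EC50 by median effect fit.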

Series [2] is described as follows: Compound cytotoxicity, XTT-based colorimetric assay. It counts as cell-based. The conditions noted are these: human; uninfected MT2 cells, day 4, XTT; read-out: CC50. Summed up:
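Cells seeded as for the antiviral assay but left uninfected (MT2). Compound exposure continued to day 4. XTT reagent added and colour read. CC50 calculated.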
In general terms: Tetrazolium dyes change colour on reduction, which living cells bring about.

For `COCCCn1nc(NS(C)(=O)=O)c2c(Cl)ccc(-n3c([C@H](Cc4cc(F)cc(F)c4)NC(=O)Cn4nc(C(F)F)c5c4C(F)(F)[C@@H]4C[C@H]54)nc4nc(C5CCC(F)(F)CC5)cc(NCCN5C[C@H](F)C[C@H](F)C5)c4c3=O)c21` (atropisomer, axis not shown; (P)) [Example 509, N-[(1S)-1-[(3P)-3-[4-chloro-3-methanesulfonamido-1-(3-methoxypropyl)-1H-indazol-7-yl]-7-(4,4-difluorocyclohexyl)-5-({2-[(3R,5S)-3,5-difluoropiperidin-1-yl]ethyl}amino)-4-oxo-3H,4H-pyrido[2,3-d]pyrimidin-2-yl]-2-(3,5-difluorophenyl)ethyl]-2-[(2S,4R)-9-(difluoromethyl)-5,5-difluoro-7,8-diazatricyclo[4.3.0.0^2,^4]nona-1(6),8-dien-7-yl]acetamide], the EC50 (in general, the concentration giving half of the maximal effect) in series [1] came out at 0.006 nM. The CC50 (commonly the concentration that lowers cell viability or growth by half) at 4 days in series [2] was more than 20 nM.
The like results for `CS(=O)(=O)Nc1nn(CCN2C[C@H](F)C[C@H](F)C2)c2c(-n3c([C@H](Cc4cc(F)cc(F)c4)NC(=O)Cn4nc(C(F)F)c5c4C(F)(F)[C@@H]4C[C@H]54)nc4nc(C5CCC(F)(F)CC5)cc(CF)c4c3=O)ccc(Cl)c12` (atropisomer, axis not shown; (P)) [Example 512, N-[(1S)-1-[(3P)-3-(4-chloro-1-{2-[(3R,5S)-3,5-difluoropiperidin-1-yl]ethyl}-3-methanesulfonamido-1H-indazol-7-yl)-7-(4,4-difluorocyclohexyl)-5-(fluoromethyl)-4-oxo-3H,4H-pyrido[2,3-d]pyrimidin-2-yl]-2-(3,5-difluorophenyl)ethyl]-2-[(2S,4R)-9-(difluoromethyl)-5,5-difluoro-7,8-diazatricyclo[4.3.0.0^2,^4]nona-1(6),8-dien-7-yl]acetamide] were, in that order, 0.006 nM and more than 20 nM.
In the same order, the values of `CC1(C)CN(CCn2nc(NS(C)(=O)=O)c3c(Cl)ccc(-n4c([C@H](Cc5cc(F)cc(F)c5)NC(=O)Cn5nc(C(F)F)c6c5C(F)(F)[C@@H]5C[C@H]65)nc5nc(C6CCC(F)(F)CC6)cc(CF)c5c4=O)c32)CC(C)(C)O1` (atropisomer, axis not shown; (P)) [Example 513, N-[(1S)-1-[(3P)-3-{4-chloro-3-methanesulfonamido-1-[2-(2,2,6,6-tetramethylmorpholin-4-yl)ethyl]-1H-indazol-7-yl}-7-(4,4-difluorocyclohexyl)-5-(fluoromethyl)-4-oxo-3H,4H-pyrido[2,3-d]pyrimidin-2-yl]-2-(3,5-difluorophenyl)ethyl]-2-[(2S,4R)-9-(difluoromethyl)-5,5-difluoro-7,8-diazatricyclo[4.3.0.0^2,^4]nona-1(6),8-dien-7-yl]acetamide] are 0.017 nM and more than 20 nM.
With `CS(=O)(=O)Nc1nn(CCN2CCC(F)(F)CC2)c2c(-n3c([C@H](Cc4cc(F)cc(F)c4)NC(=O)Cn4nc(C(F)F)c5c4C(F)(F)[C@@H]4C[C@H]54)nc4nc(C5CCC(F)(F)CC5)cc(CF)c4c3=O)ccc(Cl)c12` (atropisomer, axis not shown; (P)) [Example 514, N-[(1S)-1-[(3P)-3-{4-chloro-1-[2-(4,4-difluoropiperidin-1-yl)ethyl]-3-methanesulfonamido-1H-indazol-7-yl}-7-(4,4-difluorocyclohexyl)-5-(fluoromethyl)-4-oxo-3H,4H-pyrido[2,3-d]pyrimidin-2-yl]-2-(3,5-difluorophenyl)ethyl]-2-[(2S,4R)-9-(difluoromethyl)-5,5-difluoro-7,8-diazatricyclo[4.3.0.0^2,^4]nona-1(6),8-dien-7-yl]acetamide], the EC50 in series [1] was 0.014 nM. The CC50 at 4 days in series [2] was more than 20 nM.
As for `COCCCn1nc(NS(C)(=O)=O)c2c(Cl)ccc(-n3c([C@H](Cc4cc(F)cc(F)c4)NC(=O)Cn4nc(C(F)F)c5c4C(F)(F)[C@@H]4C[C@H]54)nc4nc(C5CCC(F)(F)CC5)cc(NCCN5CCC6(CC5)CC6)c4c3=O)c21` (atropisomer, axis not shown; (P)) [Example 515, N-[(1S)-1-[(3P)-5-[(2-{6-azaspiro[2.5]octan-6-yl}ethyl)amino]-3-[4-chloro-3-methanesulfonamido-1-(3-methoxypropyl)-1H-indazol-7-yl]-7-(4,4-difluorocyclohexyl)-4-oxo-3H,4H-pyrido[2,3-d]pyrimidin-2-yl]-2-(3,5-difluorophenyl)ethyl]-2-[(2S,4R)-9-(difluoromethyl)-5,5-difluoro-7,8-diazatricyclo[4.3.0.0^2,^4]nona-1(6),8-dien-7-yl]acetamide], in series [1], the EC50 was 0.016 nM. The CC50 at 4 days in series [2] was more than 20 nM.
As to `COCCCn1nc(NS(C)(=O)=O)c2c(Cl)ccc(-n3c([C@H](Cc4cc(F)cc(F)c4)NC(=O)Cn4nc(C(F)F)c5c4C(F)(F)[C@@H]4C[C@H]54)nc4nc(C5CCC(F)(F)CC5)cc(NCCN5CC(F)(F)C5)c4c3=O)c21` (atropisomer, axis not shown; (P)) [Example 517, N-[(1S)-1-[(3P)-3-[4-chloro-3-methanesulfonamido-1-(3-methoxypropyl)-1H-indazol-7-yl]-5-{[2-(3,3-difluoroazetidin-1-yl)ethyl]amino}-7-(4,4-difluorocyclohexyl)-4-oxo-3H,4H-pyrido[2,3-d]pyrimidin-2-yl]-2-(3,5-difluorophenyl)ethyl]-2-[(2S,4R)-9-(difluoromethyl)-5,5-difluoro-7,8-diazatricyclo[4.3.0.0^2,^4]nona-1(6),8-dien-7-yl]acetamide], the EC50 in series [1] amounted to 0.009 nM. In addition, the CC50 at 4 days in series [2] was more than 20 nM.
The like results for `COCCCn1nc(NS(C)(=O)=O)c2c(Cl)ccc(-n3c([C@H](Cc4cc(F)cc(F)c4)NC(=O)Cn4nc(C(F)F)c5c4C(F)(F)[C@@H]4C[C@H]54)nc4nc(C5CCC(F)(F)CC5)cc(NCCCN5CCCCC5)c4c3=O)c21` (atropisomer, axis not shown; (P)) [Example 519, N-[(1S)-1-[(3P)-3-[4-chloro-3-methanesulfonamido-1-(3-methoxypropyl)-1H-indazol-7-yl]-7-(4,4-difluorocyclohexyl)-4-oxo-5-{[3-(piperidin-1-yl)propyl]amino}-3H,4H-pyrido[2,3-d]pyrimidin-2-yl]-2-(3,5-difluorophenyl)ethyl]-2-[(2S,4R)-9-(difluoromethyl)-5,5-difluoro-7,8-diazatricyclo[4.3.0.0^2,^4]nona-1(6),8-dien-7-yl]acetamide] were, in that order, 0.024 nM and more than 20 nM.
Turning to `COCCCn1nc(NS(C)(=O)=O)c2c(Cl)ccc(-n3c([C@H](Cc4cc(F)cc(F)c4)NC(=O)Cn4nc(C(F)F)c5c4C(F)(F)[C@@H]4C[C@H]54)nc4nc(C5CCC(F)(F)CC5)cc(NCCc5ccccc5)c4c3=O)c21` (atropisomer, axis not shown; (P)) [Example 521, N-[(1S)-1-[(3P)-3-[4-chloro-3-methanesulfonamido-1-(3-methoxypropyl)-1H-indazol-7-yl]-7-(4,4-difluorocyclohexyl)-4-oxo-5-[(2-phenylethyl)amino]-3H,4H-pyrido[2,3-d]pyrimidin-2-yl]-2-(3,5-difluorophenyl)ethyl]-2-[(2S,4R)-9-(difluoromethyl)-5,5-difluoro-7,8-diazatricyclo[4.3.0.0^2,^4]nona-1(6),8-dien-7-yl]acetamide], the EC50 in series [1] was 0.079 nM. Moreover, in series [2], the CC50 at 4 days is more than 20 nM.
The like results for `COCCCn1nc(NS(C)(=O)=O)c2c(Cl)ccc(-n3c([C@H](Cc4cc(F)cc(F)c4)NC(=O)Cn4nc(C(F)F)c5c4C(F)(F)[C@@H]4C[C@H]54)nc4nc(C5CCC(F)(F)CC5)cc(NCCN(C)C)c4c3=O)c21` (atropisomer, axis not shown; (P)) [Example 522, N-[(1S)-1-[(3P)-3-[4-chloro-3-methanesulfonamido-1-(3-methoxypropyl)-1H-indazol-7-yl]-7-(4,4-difluorocyclohexyl)-5-{[2-(dimethylamino)ethyl]amino}-4-oxo-3H,4H-pyrido[2,3-d]pyrimidin-2-yl]-2-(3,5-difluorophenyl)ethyl]-2-[(2S,4R)-9-(difluoromethyl)-5,5-difluoro-7,8-diazatricyclo[4.3.0.0^2,^4]nona-1(6),8-dien-7-yl]acetamide] were, in that order, 0.014 nM and more than 20 nM.
In the same order, the values of `COCCCn1nc(NS(C)(=O)=O)c2c(Cl)ccc(-n3c([C@H](Cc4cc(F)cc(F)c4)NC(=O)Cn4nc(C(F)F)c5c4C(F)(F)[C@@H]4C[C@H]54)nc4nc(C5CCC(F)(F)CC5)cc(NCCN5CCC(C)(C)CC5)c4c3=O)c21` (atropisomer, axis not shown; (P)) [Example 523, N-[(1S)-1-[(3P)-3-[4-chloro-3-methanesulfonamido-1-(3-methoxypropyl)-1H-indazol-7-yl]-7-(4,4-difluorocyclohexyl)-5-{[2-(4,4-dimethylpiperidin-1-yl)ethyl]amino}-4-oxo-3H,4H-pyrido[2,3-d]pyrimidin-2-yl]-2-(3,5-difluorophenyl)ethyl]-2-[(2S,4R)-9-(difluoromethyl)-5,5-difluoro-7,8-diazatricyclo[4.3.0.0^2,^4]nona-1(6),8-dien-7-yl]acetamide] are 0.012 nM and more than 20 nM.
